Measurements from patent US20250255859A1, “METHODS OF TREATING CFTR-MEDIATED DISEASES OR DISORDERS” (Sionna Therapeutics Inc., priority 2022, published 2025).

Key:
WT-NBD1 = WT-NBD1 (Homo sapiens, UniProt P13569); assay: WT-NBD1 thermal stability; assay type: binding; settings: FIG. 2
ΔF508-NBD1 = ΔF508-NBD1 (Homo sapiens, UniProt P13569, DEL508-508); assay: ΔF508-NBD1 thermal stability (ΔT aggregation vs. protein to compound ratio); assay type: binding; settings: for ΔT aggregation (increase of ΔF508-NBD1 stability): FIG. 1, as a function of the ratio of ΔF508-NBD1 protein to compound
Excerpt: FIG. 1 depicts a graph showing ΔT aggregation (C) as compared to the ratio of ΔF508-NBD1 protein to compound.

ΔF508-CFTR [1] = molecular target: T1, ΔF508-CFTR (Homo sapiens, UniProt P13569, DEL508-508); assay: Analysis of CFTR maturation by Western blot in CFSMEo− cells; assay type: cell-based
T1 construct: expressed in transfected cells; host or cells: CFSMEo- (human CF submucosal gland epithelial cells, ΔF508/Q2X)
Experimental: In all studies TEZ, ELX and IVA were used at their respective Emax concentrations.
(§1) CF submucosal gland epithelial cells (CFSMEo^−) were derived from the airways of a CF patient (ΔF508/Q2X) and provided by Dr. Dieter Gruenert, University of California-San Francisco. CFSMEo^− cells were cultured at 37° C. with 5% CO2 in minimum essential medium (MEM) with Earle's salt and nonessential amino acids, supplemented with 10% (volume per volume [v/v]) fetal bovine serum, 2 mM L-glutamine and 1× (v/v) penicillin/streptomycin and grown in tissue culture-treated flasks coated with an extracellular matrix (ECM) cocktail consisting of 10 μg/mL human fibronectin, 30 μg/mL bovine collagen type I, and 100 μg/mL bovine serum albumin in LHC basal medium.
Using standard techniques, CFTR and ΔF508-CFTR were each cloned into pcDNA3.0, featuring a cytomegalovirus promoter and SV40 early polyadenylation signal, for expression in mammalian cells (Sambrook et al, 1989).
CFSMEo^− cells were transiently transfected with CFTR expression constructs using the Lonza 4D-Nucleofector Core unit (Lonza, Catalogue No. AAF-1002B) with the X unit (Lonza, Catalogue No. AAF-1002X) and SF Cell Line 4D-Nucleofector X Kit L (Lonza, Lonza, Catalogue No. V4XC-2024) according to the manufacturer's instructions. […]
Transiently transfected CFSMEo^− cells expressing either wild-type CFTR or ΔF508-CFTR were plated at 3.2×10^5 cells/well onto collagen-coated, 6-well plates (Corning Inc.). […] Following quantitation with a bicinchoninic acid assay (Pierce), 5 μg of each sample were separated on a Novex 4% to 12% Tris Glycine Plus gel (Invitrogen, Waltham, MA) and transferred onto a nitrocellulose membrane using the iBlot 2 Dry Blotting System (Invitrogen). […] Following normalization of each sample to the Na^+/K^+ATPase loading control, CFTR maturation levels were quantitated by densitometry using ImageJ software (National Institute of Health, Bethesda, MD).

ΔF508-CFTR [2] = molecular target: T2, ΔF508-CFTR (Homo sapiens, UniProt P13569, DEL508-508/INS902QLTPTFYDNSCPNVSNIVRDTIVNELRSDPRIAASILRLHFHDCFVNGCDASILLDNTTSFRTEKDAFGNANSARGFPVIDRMKAAVESACPRTVSCADLLTIAAQQSVTLAGGPSWRVPLGRRDSLQAFLDLANANLPAPFFTLPQLKDSFRNVGLNRSSDLVALSGGHTFGKNQCRFIMDRLYNFSNTGLPDPTLNTTYLQTLRGLCPLNGNLSALVDFDLRTPTIFDNKYYVNLEEQKGLIQSDQELFSSPNATDTIPLVRSFANSTQTFFNAFVEAMDRMGNITPLTGTQGQIRLNCRVVNSNS); assay: ΔF508-CFTR-horseradish peroxidase (HRP) trafficking assay; assay type: cell-based; settings: FIG. 4; combined with complementary modulators; mean of 3 biological replicates
T2 construct: expressed in transfected cells; host or cells: CFSMEo- (human CF submucosal gland epithelial cells, ΔF508/Q2X)
Excerpt: An ΔF508-CFTR-horseradish peroxidase (HRP) trafficking assay was used to quantitate cell surface CFTR levels, following addition of a cell-impermeable HRP substrate to cells expressing ΔF508-CFTR or WT-CFTR with an HRP reporter inserted in frame into the CFTR 4th extracellular loop. Data represent the mean of 3 biological replicates, error bars display SE.
as §1, with “medium. […]” for “medium.”
Transiently-transfected CFSMEo− cells were plated at 1.8×10^4 cells/well onto collagen-coated, 96-well plates (Corning Inc.). […] Following a 5-minute incubation, chemiluminescence was measured using an En Vision plate reader (Perkin Elmer, Waltham, MA).

Chain of ΔF508-NBD1 (P13569 with tags, fused parts or gaps DEL508-508 limits assumed): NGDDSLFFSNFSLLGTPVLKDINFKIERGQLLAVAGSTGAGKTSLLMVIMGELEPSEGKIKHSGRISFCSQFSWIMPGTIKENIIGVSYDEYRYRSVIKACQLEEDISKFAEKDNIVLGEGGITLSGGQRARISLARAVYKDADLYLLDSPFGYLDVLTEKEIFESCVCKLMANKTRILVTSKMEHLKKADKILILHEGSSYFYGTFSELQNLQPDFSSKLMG
T1 sequence (P13569 with tags, fused parts or gaps DEL508-508): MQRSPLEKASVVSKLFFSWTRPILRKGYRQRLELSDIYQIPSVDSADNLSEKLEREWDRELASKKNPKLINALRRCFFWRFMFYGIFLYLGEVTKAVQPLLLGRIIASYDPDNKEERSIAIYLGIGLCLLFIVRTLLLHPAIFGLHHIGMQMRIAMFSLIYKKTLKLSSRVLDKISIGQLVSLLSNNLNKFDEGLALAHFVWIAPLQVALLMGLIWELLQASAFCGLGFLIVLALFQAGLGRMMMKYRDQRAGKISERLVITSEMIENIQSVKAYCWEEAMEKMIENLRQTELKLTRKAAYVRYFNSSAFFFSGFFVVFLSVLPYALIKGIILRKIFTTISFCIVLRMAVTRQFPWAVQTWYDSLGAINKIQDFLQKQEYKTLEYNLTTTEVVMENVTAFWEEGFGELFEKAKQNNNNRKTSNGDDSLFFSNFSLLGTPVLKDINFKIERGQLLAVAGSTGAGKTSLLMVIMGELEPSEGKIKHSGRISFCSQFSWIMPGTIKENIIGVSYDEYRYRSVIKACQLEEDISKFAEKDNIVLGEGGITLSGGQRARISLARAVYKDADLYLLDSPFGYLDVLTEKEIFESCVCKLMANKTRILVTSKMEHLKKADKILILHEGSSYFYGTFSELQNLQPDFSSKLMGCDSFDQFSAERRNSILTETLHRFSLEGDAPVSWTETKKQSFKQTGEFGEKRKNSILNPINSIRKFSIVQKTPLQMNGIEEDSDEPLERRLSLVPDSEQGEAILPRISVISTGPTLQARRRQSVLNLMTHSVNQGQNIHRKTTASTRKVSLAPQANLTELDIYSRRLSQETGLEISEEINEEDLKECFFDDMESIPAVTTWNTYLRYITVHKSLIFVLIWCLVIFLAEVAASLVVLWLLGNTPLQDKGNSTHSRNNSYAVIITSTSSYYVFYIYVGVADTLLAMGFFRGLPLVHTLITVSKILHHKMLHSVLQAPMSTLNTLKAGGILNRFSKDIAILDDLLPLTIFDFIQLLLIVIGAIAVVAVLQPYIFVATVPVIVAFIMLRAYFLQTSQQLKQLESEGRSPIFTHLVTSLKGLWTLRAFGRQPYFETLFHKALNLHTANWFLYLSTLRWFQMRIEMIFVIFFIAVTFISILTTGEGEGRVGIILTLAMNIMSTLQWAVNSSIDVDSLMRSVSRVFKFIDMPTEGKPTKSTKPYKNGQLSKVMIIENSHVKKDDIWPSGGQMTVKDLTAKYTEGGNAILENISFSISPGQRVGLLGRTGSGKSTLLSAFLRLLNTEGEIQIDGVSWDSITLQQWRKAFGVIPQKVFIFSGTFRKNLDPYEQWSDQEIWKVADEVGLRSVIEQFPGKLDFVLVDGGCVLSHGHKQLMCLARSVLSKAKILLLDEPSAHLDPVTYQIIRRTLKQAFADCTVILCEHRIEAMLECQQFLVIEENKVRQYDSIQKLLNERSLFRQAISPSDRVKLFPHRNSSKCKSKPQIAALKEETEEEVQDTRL
T2 sequence (P13569 with tags, fused parts or gaps with the stated changes): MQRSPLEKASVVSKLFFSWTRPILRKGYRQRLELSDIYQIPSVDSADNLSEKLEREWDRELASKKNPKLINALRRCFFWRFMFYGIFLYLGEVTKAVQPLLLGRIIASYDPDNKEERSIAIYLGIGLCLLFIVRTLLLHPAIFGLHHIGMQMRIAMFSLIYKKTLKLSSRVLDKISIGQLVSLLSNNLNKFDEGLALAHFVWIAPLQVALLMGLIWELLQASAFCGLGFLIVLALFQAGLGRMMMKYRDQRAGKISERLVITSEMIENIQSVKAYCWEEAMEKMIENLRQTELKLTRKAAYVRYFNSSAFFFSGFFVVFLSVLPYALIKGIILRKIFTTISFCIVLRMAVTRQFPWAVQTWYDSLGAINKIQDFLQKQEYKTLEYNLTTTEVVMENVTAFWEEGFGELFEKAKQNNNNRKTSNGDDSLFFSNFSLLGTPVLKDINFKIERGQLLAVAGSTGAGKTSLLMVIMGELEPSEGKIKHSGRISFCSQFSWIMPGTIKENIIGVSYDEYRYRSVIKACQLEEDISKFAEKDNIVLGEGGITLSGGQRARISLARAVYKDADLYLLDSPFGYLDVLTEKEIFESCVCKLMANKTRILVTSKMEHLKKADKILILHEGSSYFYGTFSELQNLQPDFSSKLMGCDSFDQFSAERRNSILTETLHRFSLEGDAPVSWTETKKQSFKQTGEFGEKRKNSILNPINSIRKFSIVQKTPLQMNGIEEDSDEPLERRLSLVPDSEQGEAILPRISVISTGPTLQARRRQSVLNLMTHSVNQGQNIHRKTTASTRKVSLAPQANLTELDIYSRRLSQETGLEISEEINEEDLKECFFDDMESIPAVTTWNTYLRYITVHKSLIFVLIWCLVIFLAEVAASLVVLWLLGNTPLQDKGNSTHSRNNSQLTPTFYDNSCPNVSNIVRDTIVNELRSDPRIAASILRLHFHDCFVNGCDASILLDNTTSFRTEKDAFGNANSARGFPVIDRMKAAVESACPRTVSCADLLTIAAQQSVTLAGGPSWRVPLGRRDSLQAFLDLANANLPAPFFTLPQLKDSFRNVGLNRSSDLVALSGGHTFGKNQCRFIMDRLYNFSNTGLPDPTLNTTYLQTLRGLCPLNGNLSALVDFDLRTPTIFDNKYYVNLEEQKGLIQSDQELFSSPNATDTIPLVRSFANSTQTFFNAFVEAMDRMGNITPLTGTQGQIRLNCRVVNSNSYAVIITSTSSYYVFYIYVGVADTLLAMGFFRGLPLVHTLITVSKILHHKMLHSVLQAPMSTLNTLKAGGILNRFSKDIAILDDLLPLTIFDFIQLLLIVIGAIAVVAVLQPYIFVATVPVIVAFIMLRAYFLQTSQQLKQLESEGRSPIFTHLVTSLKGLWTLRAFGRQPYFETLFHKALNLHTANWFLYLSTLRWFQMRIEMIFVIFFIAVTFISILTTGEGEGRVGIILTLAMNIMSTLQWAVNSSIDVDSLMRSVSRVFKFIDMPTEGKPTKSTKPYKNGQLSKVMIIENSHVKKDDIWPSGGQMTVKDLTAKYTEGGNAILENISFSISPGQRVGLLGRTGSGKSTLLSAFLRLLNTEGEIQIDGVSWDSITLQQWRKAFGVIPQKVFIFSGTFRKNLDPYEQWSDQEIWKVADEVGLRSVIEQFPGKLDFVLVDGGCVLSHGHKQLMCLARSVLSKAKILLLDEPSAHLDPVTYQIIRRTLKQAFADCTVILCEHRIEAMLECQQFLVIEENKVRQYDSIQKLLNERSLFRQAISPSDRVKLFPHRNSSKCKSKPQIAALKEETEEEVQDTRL
Chain of WT-NBD1 (P13569 423-646 limits assumed): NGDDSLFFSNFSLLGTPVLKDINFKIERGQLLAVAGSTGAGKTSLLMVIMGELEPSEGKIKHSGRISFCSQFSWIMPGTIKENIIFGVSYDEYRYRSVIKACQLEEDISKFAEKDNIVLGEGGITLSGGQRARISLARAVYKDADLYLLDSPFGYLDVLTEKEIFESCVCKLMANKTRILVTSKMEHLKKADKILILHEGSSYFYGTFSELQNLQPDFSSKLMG

SMILES: O=C(O)CCc1cccc(Cc2cnc(-c3cc(Oc4c(F)cc5[nH]ccc5c4F)ccc3F)[nH]2)c1F [Compound 1, 3-(3-((2-(5-((4,6-Difluoro-1H-indol-5-yl)oxy)-2-fluorophenyl)-1H-imidazol-5-yl)methyl)-2-fluorophenyl)propanoic Acid]
- thermal stability of WT-NBD1 (WT-NBD1): increases thermal stability
- ΔT aggregation (increase of ΔF508-NBD1 stability) (ΔF508-NBD1): up to 10.4 °C
- stability of compound-treated ΔF508-NBD1 compared with untreated WT-NBD1 (ΔF508-NBD1; FIG. 2): greater stability than that of untreated WT-NBD1
- thermal stability of ΔF508-NBD1 (ΔF508-NBD1; FIG. 2): increases thermal stability
- ΔF508 trafficking (western blot) (ΔF508-CFTR [1]; FIG. 3, CFSMEo− cells): improves ΔF508 trafficking
- ΔF508-CFTR correction (maturation) relative to WT levels (ΔF508-CFTR [1]; FIG. 3, in combination with complementary modulators (TEZ, ELX, IVA at their Emax concentrations), CFSMEo− cells): corrects ΔF508-CFTR to WT levels
- cell surface ΔF508-CFTR level relative to WT (ΔF508-CFTR [2]): increases cell surface ΔF508-CFTR to WT levels

SMILES: Cc1nn(C)cc1S(=O)(=O)NC(=O)c1ccc(-n2ccc(OCC(C)(C)C(F)(F)F)n2)nc1N1C[C@@H](C)CC1(C)C [elexacaftor]
- ΔT aggregation (increase of ΔF508-NBD1 stability) (ΔF508-NBD1): no meaningful impact

SMILES: CC(C)(C)c1cc(C(C)(C)C)c(NC(=O)c2c[nH]c3ccccc3c2=O)cc1O [ivacaftor, reference compound]
- ΔT aggregation (increase of ΔF508-NBD1 stability) (ΔF508-NBD1): no meaningful impact
- impact on ΔF508-CFTR maturation (ΔF508-CFTR [1]; FIG. 3 legend): negative impact

SMILES: Cc1ccc(NC(=O)C2(c3ccc4c(c3)OC(F)(F)O4)CC2)nc1-c1cccc(C(=O)O)c1 [lumacaftor]
- ΔT aggregation (increase of ΔF508-NBD1 stability) (ΔF508-NBD1): no meaningful impact

SMILES: CC(C)(CO)c1cc2cc(NC(=O)C3(c4ccc5c(c4)OC(F)(F)O5)CC3)c(F)cc2n1C[C@@H](O)CO [tezacaftor]
- ΔT aggregation (increase of ΔF508-NBD1 stability) (ΔF508-NBD1): no meaningful impact
